By IC50 is commonly meant the concentration needed to halve the response being measured.

For assay [1], the target named is SDF-1α (Homo sapiens, UniProt P48061). The experiment in a line: SDF-1α/heparin competition assay by SPR (Biacore). Conditions: 96 nM SDF-1α, biotinylated low molecular weight heparin (6 kDa), Sensorchip SA. Type of assay: binding. On the procedure: (§1) Heparin or low molecular weight heparin (6 kDa) from SIGMA were biotinylated at the reducing end and immobilized on a Biacore sensorchip. Different concentrations of the compounds of the present invention were co-incubated at a fixed concentration of targets: FGF-2, PDGF-β, VEGF-A or SDF-1α for 30 minutes. The mixture was then injected onto the streptavidin control (control reference) and HP surfaces. Only free growth factor (GF) or chemokine, i.e. the target molecules not bound to compounds of the present invention, were trapped on the heparin surface. From the binding of free targets on heparin, the percentages of inhibition were calculated and then reported in function of compound concentrations. The plot was fitted with a four-parameter model and IC50 was calculated. The 0% inhibition value was obtained for the injection of the studied target in running-buffer, and the 100% inhibition value was obtained for the injection of the studied target co-incubated with 10 μM of low molecular weight heparin 6 kDa.
A SDF-1α/heparin competition assay using the Biacore technology was performed using the following conditions: 96 nM SDF-1α, biotinylated low molecular weight heparin (6 kDa), Reference Streptavidin, Sensorchip SA, HBS-P, Regeneration NaCl 2M
(§2) IC50 values of compounds of the present invention were determined using the Biacore technology for the growth factor and chemokine/heparin competition assays that contained the following proteins: VEGF-A, SDF-1α, FGF-2 and PDGF-β.
(In general: SPR reads the build-up and loss of mass on a sensor chip optically.)

Assay [2] relates to control and VEGF-A-stimulated angiogenesis (endothelial tubules, HUVEC/NHDF co-culture). The experiment in a line: In vitro angiogenesis assay (endothelial tubule formation, AngioKit). Conditions: 30 μM compound; anti-CD31 ELISA and AngioSys image analysis; FIGS. 13-15. Type of assay: cell-based, human. From the text: These experiments are also known as endothelial tubule formation assays and they are used to evaluate the compound effects on in vitro angiogenesis (the neo-formation of blood vessels from pre-existing ones). This process is critical in tumour development as bloodstream brings all the necessary nutrients and oxygen to cancer cells.
The assay uses a commercially available product (AngioKit) specially designed for screening experiments. The product consists of a 24 or 96-well culture plate containing endothelial and fibroblast cells. A similar assay has been developed “in-house” using 48-well culture plates.
Endothelial cells will, on a ten-day period, develop into a branched network of endothelial tubules or “primitive” blood vessels. This process requires a co-culture with fibroblasts, these latter cells secreting essential growth factors for endothelial cells. At the end of the incubation period (about ten days), angiogenesis is monitored both by ELISA and image analysis software quantifying different blood vessel parameters (number and average length of tubules, field area, number of junctions for example). All reagents and material (except the oligosaccharide compounds, the VEGF-A and the 48-well plate AngioKits) are bought from TCS CellWorks (http://www.tcscellworks.co.uk) which provides: • 24 and 96-well plate AngioKits (including culture medium) • Anti-CD31 (a cell marker specifically expressed on endothelial cells) reagents for ELISA and tubule staining procedures. • AngioSys image analysis software
For home-made 48-well plate AngioKits, NHDF and HUVEC cells were independently purchased while TCS CellWorks culture medium and protocol were used.
The cell medium is replaced with fresh one (day 1) and cells are incubated at 37° C. with the compounds of interest (oligosaccharides and/or angiogenic proteins, such as growth factors). During the course of the experiment, the culture medium (including oligosaccharides and/or angiogenic proteins) is replaced at days 4 and 7.
At day 10, the assay is terminated by the labelling of endothelial cells by an ELISA procedure (indirect colorimetric titration of the endothelial cell number through dosage of the endothelial-specific CD31 marker) and the staining of endothelial tubules. Photographs of stained tubules are taken and analysed with the AngioSys image analysis software.
In the following assay the effects of compounds 239, 240, 246, 247, 248, 249, 252, 254, 255 and 257 on in vitro angiogenesis were measured (all compounds were added at the 30 μM concentration). […] For the data presented in FIG. 13, AngioSys image analyses are shown on FIG. 14. Photographs of endothelial tubules are shown on the side of the anti-CD31 ELISA (see FIGS. 13 and 15).
For orientation: An ELISA detects its analyte on a solid surface through an enzyme-linked reagent.

Assay [3] has as its target PDGF-β (Homo sapiens, UniProt P01127). The experiment in a line: PDGF-β/heparin competition assay by SPR (Biacore). Type of assay: binding. Conditions: 10 nM PDGF-β, biotinylated heparin, Sensorchip C1. Here is the method:
as §1, with “kDa. A PDGF-β/heparin competition assay using the Biacore technology was performed using the following conditions: 10 nM PDGF-β, biotinylated heparin, Reference Streptavidin, Sensorchip C1, HBS-P, Regeneration NaCl 2M. IC50 values of compounds of the present invention were determined using the Biacore technology for the growth factor and chemokine/heparin competition assays that contained the following proteins: VEGF-A, SDF-1α, FGF-2 and PDGF-β.” for “kDa.”

Assay [4] concerns the target T1, VEGF-A (Homo sapiens, UniProt P15692).
T1 sequence (P15692 27-191 isoform P15692-4): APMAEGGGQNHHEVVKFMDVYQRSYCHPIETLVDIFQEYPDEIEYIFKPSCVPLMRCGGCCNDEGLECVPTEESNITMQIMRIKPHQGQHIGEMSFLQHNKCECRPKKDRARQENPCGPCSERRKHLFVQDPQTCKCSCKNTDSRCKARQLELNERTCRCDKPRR
As to the kind of experiment: VEGF-A/heparin competition assay by SPR (Biacore). Type of assay: binding. Conditions: 10 nM VEGF-A, biotinylated low molecular weight heparin, Sensorchip SA. Here is the method: as §1
A VEGF-A/heparin competition assay using the Biacore technology was performed using the following conditions: 10 nM VEGF-A, biotinylated low molecular weight heparin, Reference Streptavidin, Sensorchip SA, HBS-P, Regeneration NaCl 2M.
as §2

In assay [5] the target is FGF-2 (Homo sapiens, UniProt P09038). As to the kind of experiment: FGF-2/heparin competition assay by SPR (Biacore). Type of assay: binding. Conditions: 10 nM FGF-2, biotinylated heparin, Sensorchip C1. Here is the method: as §1
A FGF-2/heparin competition assay using the Biacore technology was performed in the following conditions: 10 nM FGF-2, biotinylated heparin, Reference Streptavidin, Sensorchip C1, PBS-T 0.02%, Regeneration NaCl 2M
as §2

For `C#CCCCOC1OC(COS(=O)(=O)[O-])C(OC2OC(C(=O)[O-])C(OC3OC(COS(=O)(=O)[O-])C(OC4OC(C(=O)[O-])C(OC5OC(COS(=O)(=O)[O-])C(OC6OC(C(=O)[O-])C(OC)C(OC)C6OS(=O)(=O)[O-])C(OCc6ccccc6)C5NS(=O)(=O)[O-])C(OC)C4OS(=O)(=O)[O-])C(OCc4ccccc4)C3NS(=O)(=O)[O-])C(OC)C2OS(=O)(=O)[O-])C(OCc2ccccc2)C1NS(=O)(=O)[O-].[Na+].[Na+].[Na+].[Na+].[Na+].[Na+].[Na+].[Na+].[Na+].[Na+].[Na+].[Na+]` (stereo not shown) [Compound 247], the half-maximal inhibitory concentration (IC50) in assay [1] is 0.43 µM; in assay [3] it was 1.69 µM; in assay [4], 0.045 µM; in assay [5], more than 100 µM. Besides, the “inhibition of control and/or VEGF-A-stimulated angiogenesis” value (from here on “inhibition”) in assay [2] was “inhibition of control and/or VEGF-A-stimulated angiogenesis”.
The corresponding values for `C#CCCCOC1OC(COS(=O)(=O)[O-])C(OC2OC(C(=O)[O-])C(OC3OC(COS(=O)(=O)[O-])C(OC4OC(C(=O)[O-])C(OC5OC(COS(=O)(=O)[O-])C(OC6OC(C(=O)[O-])C(OC)C(OC)C6OS(=O)(=O)[O-])C(OC)C5NS(=O)(=O)[O-])C(OC)C4OS(=O)(=O)[O-])C(OC)C3NS(=O)(=O)[O-])C(OC)C2OS(=O)(=O)[O-])C(OC)C1NS(=O)(=O)[O-].[Na+].[Na+].[Na+].[Na+].[Na+].[Na+].[Na+].[Na+].[Na+].[Na+].[Na+].[Na+]` (stereo not shown) [Compound 248] are 22.6 µM, 28 µM, 1.67 µM, 1.66 µM and “inhibition of control and/or VEGF-A-stimulated angiogenesis”.
Consider `C#CCCCOC1OC(COS(=O)(=O)[O-])C(OC2OC(C(=O)[O-])C(OC3OC(COS(=O)(=O)[O-])C(OC4OC(C(=O)[O-])C(OC5OC(COS(=O)(=O)[O-])C(OC6OC(C(=O)[O-])C(OCc7ccccc7)C(OCc7ccccc7)C6OS(=O)(=O)[O-])C(OCc6ccccc6)C5NS(=O)(=O)[O-])C(OCc5ccccc5)C4OS(=O)(=O)[O-])C(OCc4ccccc4)C3NS(=O)(=O)[O-])C(OCc3ccccc3)C2OS(=O)(=O)[O-])C(OC)C1NS(=O)(=O)[O-].[Na+].[Na+].[Na+].[Na+].[Na+].[Na+].[Na+].[Na+].[Na+].[Na+].[Na+].[Na+]` (stereo not shown) [Compound 249], for which the “inhibition” value in assay [2] is “inhibition of control and/or VEGF-A-stimulated angiogenesis”. Besides, the concentration for half-maximal inhibition (IC50) in assay [3] is 0.225 µM; in assay [5], 0.136 µM.
In the case of `C#CCCCOC1OC(COS(=O)(=O)O)C(OC2OC(C(=O)O)C(OC3OC(COS(=O)(=O)O)C(OC4OC(C(=O)O)C(OCc5ccccc5)C(OCc5ccccc5)C4OS(=O)(=O)O)C(OCc4ccccc4)C3NS(=O)(=O)O)C(OCc3ccccc3)C2OS(=O)(=O)O)C(OCc2ccccc2)C1NS(=O)(=O)O` (stereo not shown) [Compound 236], the IC50 in assay [1] worked out at 3.6 µM; in assay [3], 1.35 µM; in assay [4], 0.31 µM; in assay [5], 0.187 µM.
In the case of `C#CCCCOC1OC(COS(=O)(=O)[O-])C(OC2OC(C(=O)[O-])C(OC3OC(COS(=O)(=O)[O-])C(OC4OC(C(=O)[O-])C(OC5OC(COS(=O)(=O)[O-])C(OC6OC(C(=O)[O-])C(OCc7ccccc7)C(OCc7ccccc7)C6OS(=O)(=O)[O-])C(OCc6ccccc6)C5NS(=O)(=O)[O-])C(OCc5ccccc5)C4OS(=O)(=O)[O-])C(OC)C3NS(=O)(=O)[O-])C(OC)C2OS(=O)(=O)[O-])C(OC)C1NS(=O)(=O)[O-].[Na+].[Na+].[Na+].[Na+].[Na+].[Na+].[Na+].[Na+].[Na+].[Na+].[Na+].[Na+]` (stereo not shown) [Compound 255], the “inhibition” value in assay [2] is listed as “inhibition of control and/or VEGF-A-stimulated angiogenesis”. Further, the figures for the IC50 in assay [3] and in assay [5] were 0.122 µM and 0.036 µM, respectively.
Consider `C#CCCCOC1OC(COS(=O)(=O)[O-])C(OC2OC(C(=O)[O-])C(OC3OC(COS(=O)(=O)[O-])C(OC4OC(C(=O)[O-])C(OC5OC(COS(=O)(=O)[O-])C(OC6OC(C(=O)[O-])C(OCc7ccccc7)C(OCc7ccccc7)C6OS(=O)(=O)[O-])C(OC)C5NS(=O)(=O)[O-])C(OCc5ccccc5)C4OS(=O)(=O)[O-])C(OC)C3NS(=O)(=O)[O-])C(OCc3ccccc3)C2OS(=O)(=O)[O-])C(OC)C1NS(=O)(=O)[O-].[Na+].[Na+].[Na+].[Na+].[Na+].[Na+].[Na+].[Na+].[Na+].[Na+].[Na+].[Na+]` (stereo not shown) [Compound 246], for which the IC50 turned out to be 0.865 µM in assay [1], 0.194 µM in assay [3], 0.059 µM in assay [4] and 0.167 µM in assay [5]. Also, in assay [2], the “inhibition” value is “inhibition of control and/or VEGF-A-stimulated angiogenesis”.
Regarding `C#CCCCOC1OC(COS(=O)(=O)[O-])C(OC2OC(C(=O)[O-])C(OC3OC(COS(=O)(=O)[O-])C(OC4OC(C(=O)[O-])C(OC5OC(COS(=O)(=O)[O-])C(OC6OC(C(=O)[O-])C(OCc7ccccc7)C(OCc7ccccc7)C6OS(=O)(=O)[O-])C(OCc6ccccc6)C5NS(=O)(=O)[O-])C(OC)C4OS(=O)(=O)[O-])C(OC)C3NS(=O)(=O)[O-])C(OCc3ccccc3)C2OS(=O)(=O)[O-])C(OCc2ccccc2)C1NS(=O)(=O)[O-].[Na+].[Na+].[Na+].[Na+].[Na+].[Na+].[Na+].[Na+].[Na+].[Na+].[Na+].[Na+]` (stereo not shown) [Compound 252], in assay [2], the “inhibition” value is on record as “inhibition of control and/or VEGF-A-stimulated angiogenesis”. In addition, the IC50 in assay [3] was determined as 0.171 µM; in assay [5], 0.121 µM.

(Values after US20110166078A1, “OLIGOSACCHARIDE COMPOUNDS FOR USE IN MOBILISING STEM CELLS” (ENDOTIS PHARMA, priority 2008, published 2011).)
